# How the values were obtained:
# [1] = system: HSTS26T tumors; experiment: Second harmonic generation (SHG) imaging of fibrillar collagen in dorsal skin fold chamber tumors; assay type: in vivo, SCID mice; conditions: for decrease in SHG levels (collagen): end of 15 days
# Experimental: Cozaar (losartan potassium) tablets were ground using a mortar and pestle. The powder was then dissolved in water to obtain a concentration of 2.5 mg/ml. The solution was then filtered and stored in a sterile container.
# Second Harmonic Imaging (SHG) imaging was performed in dorsal chamber tumors with a custom-built multiphoton laser-scanning microscope (Brown E, et al. (2003) Nat Med 9:796-800). Polarized light from a Ti:Sapphire laser (Mai-Tai Broadband: Spectra-Physics, Mountain View, Calif.) was converted to circularly polarized light using a zero order quarter wave plate (Newport Corporation, Irvine, Calif.). An excitation wavelength of 810 nm and detected SHG signals at 405 nm was used. SCID mice bearing HSTS26T tumors in dorsal chambers were either treated with losartan (10, 20 or 60 mg/kg/day) or saline for the duration of the dose response experiment (15 days). Vascular markers were used to locate 4 regions of interest in each mouse and periodically returned to the same region of SHG imaging. SHG images were analyzed with a custom-built Matlab (The MathWorks, Inc., Natick, Mass.) code. The fraction of the region of interest (ROI) that was positive for the SHG signal was normalized to the amount of SHG signal obtained on day 1 of the dose response study (before initiation of losartan or saline treatment).
# [2] = system: FVB MMTV PyVT spontaneous mammary carcinoma; experiment: Collagen I immunostaining of tumor sections; assay type: in vivo, mice; conditions: 20 mg/kg/day, two weeks (FIG. 5B)
# Experimental: Human soft tissue sarcoma (HSTS26T) and human melanoma (Mu89) tumors were grown subcutaneously in the legs and dorsal skin fold chamber of severe combined immunodeficient (SCID) mice (Leunig M, et al. (1992) Cancer Res 52:6553-6560). Human pancreatic adenocarcinoma cells (L3.6PL) were grown orthotopically in the pancreas of SCID mice. L3.6PL tumors were induced with a sub-capsular injection of one million cells in the tail of the pancreas. Tumor sizes were monitored in spontaneous FVB/N-Tg (MMTV-PyVT) 634MU1/J mice and tumors selected for treatment when they reached a size of 4 to 6 mm in diameter (Guy C T et al. (1992) Mol Cell Biol 12:954-961).
# Cozaar (losartan potassium) tablets were ground using a mortar and pestle. The powder was then dissolved in water to obtain a concentration of 2.5 mg/ml. […]
# Frozen sections were cut into 10 μm sections for immunohistochemistry and imaging. Collagen I was detected using the LF-67 antibody (1:100 dilution) with a previously described protocol (Znati C A, et al. (2003) Clin Cancer Res 9:5508-5513). TSP-1 was detected with a goat anti-human antibody (1:50 dilution), which cross-reacts with mice (sc-12312, Santa Cruz Biotechnology Inc., Santa Cruz, Calif.). […] The collagen and TSP-1 content was determined by measuring the number of pixels above a threshold value that was set based on the average intensity value of pixels from all slides under analysis. […]
# [3] = system: HSTS26T tumors; experiment: Virus treatment and tumor growth delay; assay type: in vivo, SCID mice
# Experimental: (§1) Each arm (control and treated) was subsequently divided into HSV treated and non-HSV treated groups. Tumors that had reached 60 mm^3 after two weeks were selected for i.t. HSV injections. Tumors were treated with 10 μl i.t. injections of either PBS or 2.5×10^5 transducing units (t.u.) of oncolytic HSV MGH2 (gift from E. Antonio Chiocca, Ohio State University, Columbus, Ohio). Two i.t. injections of oncolytic HSV separated by 24 hrs were administered. The injections were done with a Harvard Apparatus Standard Pump 22 infusion/withdraw syringe pump system (Holliston, Mass.) at a flow rate of 4 μl/min. Tumors were measured every 2 to 3 days. Tumor volume was estimated as: V=AB^2/2, where V is the tumor volume; A and B are the maximum and minimum diameters of the tumor as measured with calipers.
# [4] = system: Mu89 tumors; experiment: Virus treatment and tumor growth delay; assay type: in vivo, SCID mice
# Experimental: as §1
# [5] = system: L3.6PL orthotopic pancreatic tumors; experiment: DOXIL treatment and tumor growth delay; assay type: in vivo, SCID mice
# Text: One week after the DOXIL injection, the tumors were resected and measured.
# [6] = system: HSTS26T tumors; experiment: In vivo proliferation (Ki67 staining); set-up: species or system mice; conditions: after losartan treatment
# Text: (§2) Tumors were resected and stained for Ki67 to assess proliferation rates. […] There was however a significant difference in proliferation between the two tumor types, the number of Ki67 positive cells was 3 fold higher in HSTS26T tumors.
# (§3) Ki67 staining was done on paraffin sections 21 days after HSV injection. Slides were microwave processed with Target Retrieval Solution (DAKO, Carpinteria, Calif.) prior to primary antibody detection. The entire tumor section was imaged at 2× magnification and reconstituted as a mosaic. Twenty regions were randomly selected in each tumor. The fraction of Ki67 positive cells in each region was determined by manual count.
# [7] = system: Mu89 tumors; experiment: In vivo proliferation (Ki67 staining); set-up: species or system mice; conditions: after losartan treatment
# Text: as §2, §3
# [8] = system: 4T1 breast tumors; experiment: Breast tumor growth and survival studies; assay type: in vivo, mice
# Text: In FIG. 35B, the quantification of tumor growth rates, based on the time to reach double the initial volume, is shown.
# In FIG. 35C, the animal survival following the initiation of treatment is shown. […] Statistical tests were corrected for multiple comparisons using the Holm-Bonferroni method.
# Breast tumor growth and survival studies: Mice bearing orthotopic E0771 or 4T1 breast tumors were split into treatment groups, time-matched for time after implantation and size-matched for tumor volume at this time (110-111 mm^3 in E0771, in 4T1). […] The primary tumors were then measured every 2 days, beginning on day 0, using calipers. Tumor growth was quantified using the time for each to reach double its initial volume Animal survival was quantified based on time of death after initiation of treatment or time to reach excessive tumor burden (>1000 mm^3).
# [9] = Mean arterial blood pressure (MABP) in mice
# Experimental: In the following Examples, 20 mg/kg/day dose was used (but it by no means limits the use of other doses in the methods described herein).
# [10] = losartan two weeks before i.t. injection of HSV
compound,measurement,setting,value
CCCCc1nc(Cl)c(CO)n1Cc1ccc(-c2ccccc2-c2nn[nH]n2)cc1 [losartan],intratumoral SHG signal intensity,[1]; 10 mg/kg/day i.p.,did not have a significant effect
same,decrease in SHG levels (collagen),[1]; 10 mg/kg/day i.p.,20%
same,intratumoral SHG signal intensity,[1]; 20 mg/kg/day i.p.,significantly reduced
same,decrease in SHG levels (collagen),[1]; 20 mg/kg/day i.p.,33%
same,intratumoral SHG signal intensity,[1]; 60 mg/kg/day i.p.,significantly reduced
same,decrease in SHG levels (collagen),[1]; 60 mg/kg/day i.p.,67%
same,reduction in collagen I immunostaining,[2],47%
same,tumor growth rate,[3]; losartan alone,did not affect
same,mice whose tumor volume remained stable for up to 9 weeks,[3]; losartan and HSV,50%
same,tumor growth,[3]; [10],significantly delayed the growth
same,tumor growth rate,[4]; losartan alone,did not affect
same,tumor size relative to the starting treatment size,"[4]; losartan and HSV, 4 weeks after the virus injection, all tumors",3 fold
same,tumor growth,[4]; [10],significantly delayed the growth
same,mean tumor weight,"[5]; agent alone (losartan 20 mg/kg/day or DOXIL 4 mg/kg i.v.), after 7 days",did not affect
same,tumor size vs DOXIL alone,[5]; losartan 20 mg/kg/day combined with DOXIL 4 mg/kg i.v.,significantly smaller
same,growth of pancreatic tumors or weight of treated mice,[5]; losartan alone,did not affect
same,reduction of tumor sizes compared to DOXIL treatment alone,[5]; losartan combined with DOXIL,50%
same,positive Ki67 staining,[6],no statistically significant difference
same,positive Ki67 staining,[7],no statistically significant difference
same,tumor growth rate,[8]; agent given alone (losartan 40 mg/kg daily or doxorubicin 2 mg/kg every three days),no significant effect
same,survival,[8]; combination of losartan and doxorubicin,improved survival
same,tumor growth,[8]; losartan in combination with doxorubicin,significantly delayed
same,survival,[8]; monotherapy,did not shorten survival
same,reduction in mean arterial blood pressure (MABP),"[9]; 20 mg/kg/day, after 2 weeks",10 mm Hg
same,reduction in mean arterial blood pressure (MABP),[9]; 60 mg/kg/day,35 mm Hg
